Peptide text beside a SMILES is read from it.
Tests used:
[1] = system: SH-SY5Y cells
[2] = system: Neuro-2A (N2A) cells
[3] = system: BoNT/A; details: cited from earlier work
[4] = system: leg muscle paralysis; design: species or system KM mice; details: mouse, in vivo
[5] = in vivo; cited from earlier work
[6] = target: BoNT/A LC (1–448 aa) (Clostridium botulinum, UniProt P0DPI0); format: biochemical
[7] = target: Clostridium botulinum neurotoxin type A light chain (1-448 aa) (Clostridium botulinum) (UniProt P0DPI0); test: enzyme inhibition kinetics (HPLC of substrate and products)
Clostridium botulinum neurotoxin type A light chain (1-448 aa) (Clostridium botulinum), sequence (P0DPI0 1-448): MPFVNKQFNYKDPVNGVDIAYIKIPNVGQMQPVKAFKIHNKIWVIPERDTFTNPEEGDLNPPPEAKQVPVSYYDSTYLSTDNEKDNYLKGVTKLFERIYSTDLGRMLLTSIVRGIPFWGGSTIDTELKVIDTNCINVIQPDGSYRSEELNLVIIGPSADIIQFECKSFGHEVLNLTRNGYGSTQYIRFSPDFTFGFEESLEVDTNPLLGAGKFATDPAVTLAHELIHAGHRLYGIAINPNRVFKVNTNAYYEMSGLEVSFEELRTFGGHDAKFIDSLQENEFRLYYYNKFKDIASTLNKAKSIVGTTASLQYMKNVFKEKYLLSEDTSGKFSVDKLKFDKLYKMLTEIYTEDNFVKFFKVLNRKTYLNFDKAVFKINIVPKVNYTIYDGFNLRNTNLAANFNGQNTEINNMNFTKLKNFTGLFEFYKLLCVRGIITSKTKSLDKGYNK

BoNT/A LC (1–448 aa), sequence (P0DPI0 1-448 limits assumed): as the sequence (P0DPI0 1-448) above

Compound: N=C(N)NCCC[C@H](NC(=O)[C@@H](N)CCCNC(=N)N)C(=O)NCC(=O)N[C@@H](Cc1c[nH]c2ccccc12)C(=O)O [RRGW] (H-RRGW-OH)
- cytotoxicity (cell viability) [1]: no cytotoxicity
- cytotoxicity (cell viability) [2]: no cytotoxicity

Compound: CRGC
- cell-based activity, in words [3]: higher activity than RRGC in cell-based experiments

Compound: Clostridium botulinum neurotoxin type A [BoNT/A]
- DAS (digit abduction score) [4]: 3–4
- nonserious cases following cosmetic use [5]: 995 cases
- nonserious cases following therapeutic use [5]: 189 cases
- serious cases following cosmetic use [5]: 36 cases
- serious cases following therapeutic use [5]: 217 cases

Compound: RHGW
- inhibitory effect on BoNT/A LC proteolytic activity (SNAP-25 cleavage), in words [6]: RRGW showed a better inhibitory effect on BoNT/A proteolytic activity than RRGC, RRGL and RHGW

Compound: RRGL
- inhibitory effect on BoNT/A LC proteolytic activity (SNAP-25 cleavage), in words [6]: RRGW showed a better inhibitory effect on BoNT/A proteolytic activity than RRGC, RRGL

Compound: RRGW tetrapeptide
- Ki [7]: 790 nM

— PMC10150623 (Journal of Enzyme Inhibition and Medicinal Chemistry, 2023)
